Test results taken from patent EP0930314A1, “p-TOLUENESULFONATE HYDRATE OF THIAZOLINE COMPOUND” (TAISHO PHARMACEUTICAL CO. LTD, priority 1996, dated 1998).

Experiments:
[1] = Hygroscopicity test (change rate of weight after storage at defined relative humidity); type: physicochemical; conditions: statement in words; test at 25°C, storage for 30 days, numeric data only in Fig 1
Procedure: Compound 1 obtained in the above example and dihydrate of the compound of Formula (1) were used as test drugs. About 100 mg of the test drug was taken into a weighing bottle and weighed accurately. The weighed test drug in the weighing bottle was stored at 25°C in a decicator which was adjusted to the defined relative humidity by using a desired saturated salt solution or a thermo-hygrostat (Tabaiestec SH-220) which was adjusted to the proper relative humidity.
After storage for 30 days, the test drug was weighed, and the change rate of weight was calculated to use as an index of hygroscopicity.

[2] = target: T1, Purified GPIIb/IIIa receptor (Homo sapiens, UniProt P05106+P08514); test: Fibrinogen receptor (GPIIb/IIIa) binding inhibition test (solid-phase, ELISA detection of bound fibrinogen); conditions: inhibition of fibrinogen (2 µg/ml) binding to solid phased purified GPIIb/IIIa, 4°C, 16 hours
T1 construct: from tissue; the cited Pytela method purifies the receptor from platelet extracts (own knowledge)
T1 sequence (P08514 32-887 limits assumed): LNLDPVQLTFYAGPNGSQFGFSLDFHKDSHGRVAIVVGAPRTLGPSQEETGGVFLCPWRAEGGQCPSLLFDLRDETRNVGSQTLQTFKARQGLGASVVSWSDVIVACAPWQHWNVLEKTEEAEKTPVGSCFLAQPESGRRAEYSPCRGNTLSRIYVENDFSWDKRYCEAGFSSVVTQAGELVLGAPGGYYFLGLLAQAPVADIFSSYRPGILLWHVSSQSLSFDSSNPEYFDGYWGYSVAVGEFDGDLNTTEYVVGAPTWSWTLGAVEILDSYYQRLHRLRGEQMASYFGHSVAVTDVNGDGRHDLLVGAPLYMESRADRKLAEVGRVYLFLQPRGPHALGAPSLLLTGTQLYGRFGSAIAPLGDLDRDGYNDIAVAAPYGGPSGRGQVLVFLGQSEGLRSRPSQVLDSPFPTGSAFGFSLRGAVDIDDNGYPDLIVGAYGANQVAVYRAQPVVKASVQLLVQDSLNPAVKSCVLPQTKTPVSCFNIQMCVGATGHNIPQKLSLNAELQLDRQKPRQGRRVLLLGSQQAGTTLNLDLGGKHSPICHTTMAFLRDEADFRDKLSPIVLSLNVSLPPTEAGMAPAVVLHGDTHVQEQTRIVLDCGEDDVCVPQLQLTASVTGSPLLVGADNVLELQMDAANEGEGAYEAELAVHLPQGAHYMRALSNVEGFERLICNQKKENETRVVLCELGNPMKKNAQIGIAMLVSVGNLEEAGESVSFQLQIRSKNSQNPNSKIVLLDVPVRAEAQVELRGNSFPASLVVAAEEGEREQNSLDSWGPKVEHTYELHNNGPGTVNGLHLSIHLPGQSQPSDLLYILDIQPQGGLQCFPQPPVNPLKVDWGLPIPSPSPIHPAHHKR
T1 sequence (P08514 891-1039 limits assumed): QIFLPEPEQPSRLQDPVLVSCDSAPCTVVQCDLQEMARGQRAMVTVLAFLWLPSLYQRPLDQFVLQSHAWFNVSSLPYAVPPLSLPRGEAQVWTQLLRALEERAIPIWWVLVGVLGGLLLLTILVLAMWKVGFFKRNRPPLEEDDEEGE
T1 sequence (P05106 27-788): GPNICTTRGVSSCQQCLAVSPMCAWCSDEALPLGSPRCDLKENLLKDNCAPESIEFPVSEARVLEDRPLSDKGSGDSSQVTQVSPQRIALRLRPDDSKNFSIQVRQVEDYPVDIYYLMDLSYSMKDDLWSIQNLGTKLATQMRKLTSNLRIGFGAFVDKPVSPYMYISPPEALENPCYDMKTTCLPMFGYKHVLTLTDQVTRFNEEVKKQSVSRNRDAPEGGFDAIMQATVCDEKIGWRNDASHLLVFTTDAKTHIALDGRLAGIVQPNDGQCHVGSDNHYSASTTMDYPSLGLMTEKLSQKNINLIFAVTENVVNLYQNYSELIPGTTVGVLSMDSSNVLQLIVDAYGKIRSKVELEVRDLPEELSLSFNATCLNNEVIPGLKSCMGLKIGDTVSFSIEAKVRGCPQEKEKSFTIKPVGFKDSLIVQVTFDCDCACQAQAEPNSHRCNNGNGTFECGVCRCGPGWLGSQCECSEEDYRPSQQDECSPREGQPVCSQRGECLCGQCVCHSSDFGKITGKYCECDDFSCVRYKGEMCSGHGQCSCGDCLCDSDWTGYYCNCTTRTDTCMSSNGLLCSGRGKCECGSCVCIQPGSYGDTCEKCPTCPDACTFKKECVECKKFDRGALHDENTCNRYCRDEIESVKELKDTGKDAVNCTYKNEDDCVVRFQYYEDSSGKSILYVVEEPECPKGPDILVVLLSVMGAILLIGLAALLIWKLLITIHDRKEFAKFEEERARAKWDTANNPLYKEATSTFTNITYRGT
Procedure: Purified GPIIb/IIIa was prepared by referring to the methods of Pytela et al (Science, 231 (1986) 1559) and a binding measurement system of solid phased GPIIb/IIIa was carried out by referring to the method of Kouns et al (Blood, 80 (1992) 2539).
Purified GPIIb/IIIa receptor was solidified on 96-well microtiter plates by reacting in a solution (pH 7.4) containing 20 mM Tris-hydrochloric acid, 150 mM sodium chloride, 1 mM calcium chloride, 1 mM magnesium chloride and 0.0005 % Triton X-100 at 4°C for 16 hours. The solid phase was then washed once with a solution (pH 7.4) containing 20 mM Tris-hydrochloric acid, 150 mM sodium chloride, 1 mM calcium chloride, 1 mM magnesium chloride and 0.05 % Tween 20 (Buffer B), and blocked by a solution (pH 7.4) containing 20 mM Tris-hydrochloric acid, 150 mM sodium chloride, 1 mM calcium chloride, 1 mM magnesium chloride and 25 % Block Ace in an amount of 150 µL/well at room temperature for 2 hours. […] The amount of the fibrinogen bound to the plates was measured by an enzyme-linked immunosorbent assay method using antifibrinogen primary antibody and peroxidase-labelled secondary antibody to calculate IC50 value. […]

[3] = test system: Blood platelet aggregation; test: Human in vitro blood platelet aggregation inhibition test (ADP-induced, PRP); type: cell-based; conditions: ADP final concentration 7 µM, concentration to inhibit the maximum aggregation by 50 %
Procedure: Citrated blood (the volume ratio of 3.13 % sodium citrate solution to blood is 1:9) was collected from the cubital vein of a healthy human who had not been received any drugs known to affect the function of blood platelet within 2 weeks prior to starting the test. The blood was centrifuged at 120 x g at room temperature for 15 minutes to give platelet rich plasma (PRP) as a supernatant, and further centrifuged at 1500 x g for 10 minutes to give platelet poor plasma (PPP) as a supernatant.
The blood platelet counts of PRP were adjusted to 50 ― 60 x 10^4/µL by diluting with PPP.
Blood platelet aggregation was monitored according to the method of Born G.V.R., [Nature, vol. 194, page 927 (1962)] using adenosine diphosphate (produced by Sigma Co.; hereinafter referred to as "ADP") as an aggregation-inducing substance. That is, a solution of Compound 1 or dihydrate of the compound of Formula (1) as a test drug in dimethyl sulfoxide was adjusted to the desired concentration with a physiological saline solution. […] The mixture was monitored for 5 minutes by using a blood platelet aggregation ability measurement apparatus (Aggricoda TM · PA-3210; made by Kyoto Daiichi Kagaku Co.) and the concentration of the test drug to inhibit the maximum aggregation by 50 % was calculated.

SMILES | hygroscopicity [1] | IC50 [2] [nM] | IC50 ([3]; Homo sapiens, Platelet) [nM] | IC50 [3] [nM]
Cc1c(C(=O)NCCC(=O)O)sc(=NC(=O)c2ccc(C(=N)N3CCC4(CC3)OCCO4)cc2)n1C [Compound 1, N-(2-carboxyethyl)-2-{4-[(4,4-ethylenedioxy)piperidin-1-yl]imidoylbenzoylimino}-3,4-dimethyl-3H-thiazoline-5-carboxamide p-toluenesulfonate dihydrate] | non-hygroscopic | 0.0805 | 22.1 | –
Cc1c(C(=O)NCCC(=O)O)sc(=NC(=O)c2ccc(C(=N)N3CCC4(CC3)OCCO4)cc2)n1C [Dihydrate of the compound of Formula (1), reference compound] | – | – | – | 21.1
